1 molecule from patent US12544392B2, “Treatment of adenovirus infection or disease associated with adenovirus infection” (SymBio Pharmaceuticals Limited, priority 2023, dated 2026) can be followed below.

One assay deals with adenovirus (AdV). The assay can be described thus: Analysis of AdV content in stool of patients by quantitative PCR. It counts as in vivo, human. Particulars: for patients in whom AdV content in stool was reduced to ND during the study period: ND = not detected. The source says: In the clinical study of Example 1, the AdV contents in the stools of patients were examined. […] In the figure, D means detected, ND means not detected, and NP means not performed. A quantitative PCR method was used to analyze AdV contents.

The nature of assay [1]: Analysis of lymphocytes: absolute lymphocyte count of a patient in cohort 3. Particulars: patient 110-05 in cohort 3 (0.4 mg/kg IV twice weekly). It counts as in vivo, human. The source says: In the clinical study of Example 1, the absolute lymphocyte count in the plasma of the patient 110-05 in cohort 3 was examined.

In the case of `CCCCCCCCCCCCCCCCOCCCOP(=O)(O)CO[C@H](CO)Cn1ccc(N)nc1=O` [BCV, [(2S)-1-(4-amino-2-oxopyrimidin-1-yl)-3-hydroxypropan-2-yl]oxymethyl-(3-hexadecoxypropoxy)phosphinic acid], the “patients in whom AdV content in stool was reduced to ND during the study period” value is on record as 2 of 9 with adenovirus (AdV) (cohort 2: 0.3 mg/kg IV twice weekly) and 5 of 8 in the assay on adenovirus (AdV) (cohort 3: 0.4 mg/kg IV twice weekly). Moreover, the “cases reduced to ND in which AdV was detected in stool in the following week” value with adenovirus (AdV) (cohort 2: 0.3 mg/kg IV twice weekly, of the two cases) is “one”. The “number of lymphocytes (absolute lymphocyte count)” value in assay [1] was “tended to increase”.
